Data published in ChEMBL document CHEMBL1909046, “DrugMatrix in vitro pharmacology data”.

Key:
[1] = molecular target: T1, Muscarinic acetylcholine receptor M2 (Homo sapiens, UniProt P08172); type: cell membranes, CHO-K1, Membrane; conditions: for Ki: read-out: Ki
T1 sequence (P08172 whole entry): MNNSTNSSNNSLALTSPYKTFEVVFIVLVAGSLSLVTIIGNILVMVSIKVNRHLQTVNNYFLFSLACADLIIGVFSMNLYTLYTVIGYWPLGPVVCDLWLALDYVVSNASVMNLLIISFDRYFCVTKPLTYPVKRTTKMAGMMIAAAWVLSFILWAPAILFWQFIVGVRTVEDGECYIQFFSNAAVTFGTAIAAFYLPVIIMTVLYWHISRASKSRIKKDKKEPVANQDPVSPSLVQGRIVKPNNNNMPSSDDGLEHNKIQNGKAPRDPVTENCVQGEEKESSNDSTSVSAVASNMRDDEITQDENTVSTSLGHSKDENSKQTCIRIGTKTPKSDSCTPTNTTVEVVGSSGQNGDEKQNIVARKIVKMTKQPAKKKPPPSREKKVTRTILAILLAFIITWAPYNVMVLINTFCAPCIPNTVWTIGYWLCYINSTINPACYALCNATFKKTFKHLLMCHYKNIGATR

Cytochrome P450 2A6 = molecular target: T2, Cytochrome P450 2A6 (Homo sapiens, UniProt P11509); conditions: bti-tn-5b1-4
T2 sequence (P11509 whole entry): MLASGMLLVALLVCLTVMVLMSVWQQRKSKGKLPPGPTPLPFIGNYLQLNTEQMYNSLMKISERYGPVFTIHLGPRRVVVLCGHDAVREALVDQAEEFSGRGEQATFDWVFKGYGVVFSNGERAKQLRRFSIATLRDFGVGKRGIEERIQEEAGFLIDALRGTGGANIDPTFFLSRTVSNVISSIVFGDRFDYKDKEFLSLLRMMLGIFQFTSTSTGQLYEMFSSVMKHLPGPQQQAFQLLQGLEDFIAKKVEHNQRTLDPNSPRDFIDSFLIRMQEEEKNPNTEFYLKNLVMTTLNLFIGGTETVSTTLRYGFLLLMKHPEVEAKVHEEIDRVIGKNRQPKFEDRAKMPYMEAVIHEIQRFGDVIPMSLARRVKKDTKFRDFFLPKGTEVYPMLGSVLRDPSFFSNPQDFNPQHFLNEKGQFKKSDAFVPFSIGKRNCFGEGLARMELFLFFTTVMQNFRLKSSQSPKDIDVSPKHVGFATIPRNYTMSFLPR
Also: in other assays of this panel Not Active means under 50% inhibition at 10 µM.

Row | SMILES | IC50 ([1]; cho-k1) | IC50 (Cytochrome P450 2A6) | Ki (Cytochrome P450 2A6) | IC50 ([1]; read-out: IC50) | Ki [1]
1 | COc1ccccc1N | Not Active | Not Active | Not Active | – | –
2 | C[C@H]1O[C@H](O[C@H]2[C@H](O)[C@@H](O)[C@@H](O[C@H]3[C@H](O)[C@@H](O)C(O)O[C@@H]3CO)O[C@@H]2CO)[C@H](O)[C@@H](O)[C@@H]1N[C@H]1C=C(CO)[C@@H](O)[C@H](O)[C@H]1O (stereo partly specified) [ACARBOSE] | Not Active | Not Active | Not Active | – | –
3 | NC12CC3CC(CC(C3)C1)C2 [AMANTADINE] | Not Active | – | – | – | –
4 | NCCCNCCSP(=O)(O)O [AMIFOSTINE] | Not Active | Not Active | Not Active | – | –
5 | CN(C)CCC=C1c2ccccc2CCc2ccccc21 [AMITRIPTYLINE] | – | Not Active | Not Active | – | –
6 | CC(C)c1c(C(=O)Nc2ccccc2)c(-c2ccccc2)c(-c2ccc(F)cc2)n1CC[C@@H](O)C[C@@H](O)CC(=O)O [ATORVASTATIN] | Not Active | Not Active | Not Active | – | –
7 | C[C@H]1[C@H](NC(=O)/C(=N\OC(C)(C)C(=O)O)c2csc(N)n2)C(=O)N1S(=O)(=O)O [AZTREONAM] | Not Active | Not Active | Not Active | – | –
8 | O=C(O)CCNC(=O)c1ccc(/N=N/c2ccc(O)c(C(=O)O)c2)cc1 [BALSALAZIDE] | Not Active | Not Active | Not Active | – | –
9 | Cn1c(=O)c2c(ncn2C)n(C)c1=O [CAFFEINE] | Not Active | Not Active | Not Active | – | –
10 | CO/N=C(\C(=O)N[C@@H]1C(=O)N2C(C(=O)O)=C(COC(C)=O)CS[C@H]12)c1csc(N)n1 [CEFOTAXIME] | Not Active | Not Active | Not Active | – | –
11 | Cc1cc(O)cc(C)c1Cl [CHLOROXYLENOL] | Not Active | Not Active | Not Active | – | –
12 | CCCNC(=O)NS(=O)(=O)c1ccc(Cl)cc1 [CHLORPROPAMIDE] | Not Active | Not Active | Not Active | – | –
13 | NS(=O)(=O)c1cc(C2(O)NC(=O)c3ccccc32)ccc1Cl (stereo unspecified) [CHLORTHALIDONE] | Not Active | Not Active | Not Active | – | –
14 | O=C(O)CC(O)(CC(=O)O)C(=O)O [CITRIC ACID] | Not Active | Not Active | Not Active | – | –
15 | CN1C[C@@H]2C[C@H]1CN2c1cc2c(cc1F)c(=O)c(C(=O)O)cn2C1CC1 [DANOFLOXACIN] | Not Active | Not Active | Not Active | – | –
16 | COc1cccc2c1C(=O)c1c(O)c3c(c(O)c1C2=O)C[C@@](O)(C(C)=O)C[C@@H]3O[C@H]1C[C@H](N)[C@H](O)[C@H](C)O1 [DAUNORUBICIN] | Not Active | Not Active | Not Active | – | –
17 | O=C(O)c1cc(-c2ccc(F)cc2F)ccc1O [DIFLUNISAL] | Not Active | Not Active | Not Active | – | –
18 | C[S+](C)[O-] [DIMETHYL SULFOXIDE] | Not Active | Not Active | Not Active | – | –
19 | CC1=NN(c2ccccc2)C(=O)C1 [EDARAVONE] | Not Active | Not Active | Not Active | – | –
20 | CC(O)(P(=O)(O)O)P(=O)(O)O [ETIDRONIC ACID] | Not Active | Not Active | Not Active | – | –
21 | CC(C)(C(=O)O)c1ccc(C(O)CCCN2CCC(C(O)(c3ccccc3)c3ccccc3)CC2)cc1 (stereo unspecified) [FEXOFENADINE] | Not Active | Not Active | Not Active | – | –
22 | CN1CCN(c2c(F)cc3c(=O)c(C(=O)O)cn(CCF)c3c2F)CC1 [FLEROXACIN] | Not Active | Not Active | Not Active | – | –
23 | O=c1[nH]c(=O)n([C@H]2C[C@H](O)[C@@H](CO)O2)cc1F [FLOXURIDINE] | Not Active | Not Active | Not Active | – | –

Row | SMILES | IC50 ([1]; cho-k1) | IC50 (Cytochrome P450 2A6) | Ki (Cytochrome P450 2A6) | IC50 ([1]; read-out: IC50) | Ki [1]
24 | O=C(O)P(=O)(O)O [FOSCARNET] | Not Active | Not Active | Not Active | – | –
25 | CCCCC1=NC2(CCCC2)C(=O)N1Cc1ccc(-c2ccccc2-c2nnn[nH]2)cc1 [IRBESARTAN] | Not Active | Not Active | Not Active | – | –
26 | CN1CCC(=C2c3ccccc3CC(=O)c3sccc32)CC1 [KETOTIFEN] | – | Not Active | Not Active | 838 nM | 298 nM
27 | C[N+](C)(C)C[C@H](O)CC(=O)[O-] [LEVOCARNITINE] | Not Active | Not Active | Not Active | – | –
28 | C[C@H]1COc2c(N3CCN(C)CC3)c(F)cc3c(=O)c(C(=O)O)cn1c23.C[C@H]1COc2c(N3CCN(C)CC3)c(F)cc3c(=O)c(C(=O)O)cn1c23.O [LEVOFLOXACIN] | Not Active | Not Active | Not Active | – | –
29 | CCn1cc(C(=O)O)c(=O)c2cc(F)c(N3CCNC(C)C3)c(F)c21 (stereo unspecified) [LOMEFLOXACIN] | Not Active | Not Active | Not Active | – | –
30 | CN1CCCC(CN2c3ccccc3Sc3ccccc32)C1 (stereo unspecified) [MEPAZINE] | – | Not Active | Not Active | 565 nM | 201 nM
31 | Cc1cccc(C)c1NC(=O)C1CCCCN1C (stereo unspecified) [MEPIVACAINE] | Not Active | Not Active | Not Active | – | –
32 | CN(C)C(=N)NC(=N)N [METFORMIN] | Not Active | Not Active | Not Active | – | –
33 | CC(C)(C)NCC(O)COc1cccc2c1CC(O)C(O)C2 (stereo unspecified) [NADOLOL] | Not Active | Not Active | Not Active | – | –
34 | C[C@]12CC[C@H]3[C@@H](CCC4=CC(=O)CC[C@@H]43)[C@@H]1CC[C@@H]2O [NANDROLONE] | Not Active | Not Active | Not Active | – | –
35 | C[C@@H]1C/C=C/C=C/C=C/C=C/[C@H](O[C@@H]2O[C@H](C)[C@@H](O)[C@H](N)[C@@H]2O)C[C@@H]2O[C@](O)(C[C@@H](O)C[C@H]3O[C@@H]3/C=C/C(=O)O1)C[C@H](O)[C@H]2C(=O)O [NATAMYCIN] | Not Active | – | – | – | –
36 | CN(C)C(=O)Oc1cccc([N+](C)(C)C)c1.[Br-] [NEOSTIGMINE BROMIDE] | Not Active | Not Active | Not Active | – | –
37 | NC(=O)c1cccnc1 [NIACINAMIDE] | Not Active | Not Active | Not Active | – | –
38 | CS(=O)(=O)Nc1ccc([N+](=O)[O-])cc1Oc1ccccc1 [NIMESULIDE] | Not Active | Not Active | Not Active | – | –
39 | NC(=O)N1c2ccccc2CC(=O)c2ccccc21 [OXCARBAZEPINE] | Not Active | Not Active | Not Active | – | –
40 | COc1ccnc(C[S+]([O-])c2nc3ccc(OC(F)F)cc3[nH]2)c1OC (stereo unspecified) [PANTOPRAZOLE] | Not Active | Not Active | Not Active | – | –
41 | N=C(N)c1ccc(OCCCCCOc2ccc(C(=N)N)cc2)cc1 [PENTAMIDINE] | – | Not Active | Not Active | – | –
42 | CCc1ccc(CCOc2ccc(CC3SC(=O)NC3=O)cc2)nc1 (stereo unspecified) [PIOGLITAZONE] | Not Active | Not Active | Not Active | – | –
43 | CCCNC(C)C(=O)Nc1ccccc1C (stereo unspecified) [PRILOCAINE] | Not Active | Not Active | Not Active | – | –
44 | CCN(CC)CCNC(=O)c1ccc(N)cc1 [PROCAINAMIDE] | Not Active | Not Active | Not Active | – | –
45 | CCN(C(C)=O)c1cccc(-c2ccnc3c(C#N)cnn23)c1 [ZALEPLON] | Not Active | Not Active | Not Active | – | –
